Type in all cases: biochemical
The target in one assay is GST-JAK1 enzyme (Homo sapiens, UniProt P23458). Briefly: JAK1 Kinase Assay Protocol. Particulars: Caliper LabChip assay, ATP 100 μM, fluoresceinated peptide; read-out: LLE_JAK1 (IC50). On the procedure:
The assay reactions were performed in U-bottom 384-well plates. The final assay volume was 30 μl prepared from 15 μl additions of enzyme and substrates (fluoresceinated peptide and ATP) and test compounds in assay buffer (20 mM HEPES pH 7.4, 10 mM MgCl2, 25 mM beta-glycerol phosphate, 0.015% Brij35 and 4 mM DTT). The reaction was initiated by the combination of GST-JAK1 enzyme with substrates and test compounds. The reactions were incubated at room temperature for 3 hours and terminated by adding 60 μl of 35 mM EDTA to each sample. Each reaction mixture was analyzed on the Caliper LabChip 3000 (Caliper, Hopkinton, Mass.) by electrophoretic separation of the fluorescent substrate and phosphorylated product. […] The final concentration of reagents in the assays was: ATP, 100 μM; fluoresceinated peptide, 1.5 μM; GST-JAK1, 12.5 nM; and DMSO, 1.6%. […] Compounds were dissolved at 10 mM in dimethylsulfoxide (DMSO) and evaluated at eleven concentrations. IC50 values were derived by non-linear regression analysis.

The target in a further assay is T1, JAK3 enzyme (Homo sapiens, UniProt P52333).
T1 sequence (P52333 1-1124): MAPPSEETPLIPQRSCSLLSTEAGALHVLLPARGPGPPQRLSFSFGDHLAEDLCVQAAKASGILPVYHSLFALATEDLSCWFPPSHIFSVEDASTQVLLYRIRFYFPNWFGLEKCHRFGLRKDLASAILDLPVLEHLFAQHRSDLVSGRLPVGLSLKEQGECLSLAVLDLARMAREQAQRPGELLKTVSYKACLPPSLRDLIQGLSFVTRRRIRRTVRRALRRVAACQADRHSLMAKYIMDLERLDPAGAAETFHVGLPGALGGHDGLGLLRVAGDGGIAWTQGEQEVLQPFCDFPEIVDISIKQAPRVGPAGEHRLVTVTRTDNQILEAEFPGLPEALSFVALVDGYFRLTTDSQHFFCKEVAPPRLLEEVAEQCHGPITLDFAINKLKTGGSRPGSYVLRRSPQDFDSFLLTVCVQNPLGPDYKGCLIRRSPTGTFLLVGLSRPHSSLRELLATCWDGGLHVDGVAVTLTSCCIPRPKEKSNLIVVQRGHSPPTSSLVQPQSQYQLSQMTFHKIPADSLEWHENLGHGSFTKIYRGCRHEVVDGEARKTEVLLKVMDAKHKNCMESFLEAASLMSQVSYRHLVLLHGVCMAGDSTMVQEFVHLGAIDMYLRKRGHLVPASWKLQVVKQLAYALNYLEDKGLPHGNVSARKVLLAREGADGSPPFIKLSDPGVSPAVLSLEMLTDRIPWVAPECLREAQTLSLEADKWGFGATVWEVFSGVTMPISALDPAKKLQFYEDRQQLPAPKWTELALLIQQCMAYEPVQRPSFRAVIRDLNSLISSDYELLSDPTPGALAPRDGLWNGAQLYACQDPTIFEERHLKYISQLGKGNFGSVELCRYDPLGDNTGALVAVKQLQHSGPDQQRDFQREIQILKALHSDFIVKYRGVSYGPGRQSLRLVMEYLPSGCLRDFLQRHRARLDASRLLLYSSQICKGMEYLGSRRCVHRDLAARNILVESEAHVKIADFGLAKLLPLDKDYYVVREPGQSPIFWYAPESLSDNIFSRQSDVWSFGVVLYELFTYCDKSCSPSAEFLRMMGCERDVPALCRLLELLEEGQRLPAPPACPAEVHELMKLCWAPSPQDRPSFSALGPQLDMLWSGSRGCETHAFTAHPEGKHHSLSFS
Briefly: JAK3 Kinase Assay Protocol (Filter). Particulars: 33P γ-ATP, 8 μM ATP, CSKtide substrate, read-out: LLE_JAK3_FB (IC50). As for the experimental part: Kinase reactions consisted of 5 ng of JAK3 enzyme, 30 uM CSKtide substrate, 0.2 μCi ^33P γ-ATP, 8 μM ATP in 30 μl kinase buffer (50 mM Hepes, pH 8.0, 10 mM MgCl2, 1 mM EGTA, 2 mM DTT). Reactions were incubated for 30 minutes at room temperature and stopped by the addition of cold trichloroacetic acid (TCA) to a final concentration of 15%. TCA precipitates were collected onto 384 well phosphocellulose filters (Millipore) using a Platemate to transfer the reaction mixture, washed on an EMBLA plate washer and the filters were quantitated using a TopCount 384-well liquid scintillation counter. […] Compounds were dissolved at 10 mM in dimethylsulfoxide (DMSO) and evaluated at six concentrations, each in triplicate. The final concentration of DMSO in the assay equaled 2%. IC50 values were derived by non-linear regression analysis.

A further assay has as its target T2, GST-JAK3 enzyme (Homo sapiens, UniProt P52333).
T2 sequence (P52333 1-1124): T1 sequence (P52333 1-1124)
Put plainly: JAK3 Kinase Assay Protocol (Caliper). Particulars: Caliper LabChip assay, ATP 8 μM, fluoresceinated peptide; read-out: LLE_JAK3_CAL (IC50). On the procedure:
The assay reactions were performed in U-bottom 384-well plates. […] The reaction was initiated by the combination of GST-JAK3 enzyme with substrates and test compounds. The reactions were incubated at room temperature for 3 hours and terminated by adding 60 μl of 35 mM EDTA to each sample. Each reaction mixture was analyzed on the Caliper LabChip 3000 (Caliper, Hopkinton, Mass.) by electrophoretic separation of the fluorescent substrate and phosphorylated product. […] Compounds were dissolved at 10 mM in dimethylsulfoxide (DMSO) and evaluated at eleven concentrations. IC50 values were derived by non-linear regression analysis.

Chain of GST-JAK1 enzyme (P23458 whole entry): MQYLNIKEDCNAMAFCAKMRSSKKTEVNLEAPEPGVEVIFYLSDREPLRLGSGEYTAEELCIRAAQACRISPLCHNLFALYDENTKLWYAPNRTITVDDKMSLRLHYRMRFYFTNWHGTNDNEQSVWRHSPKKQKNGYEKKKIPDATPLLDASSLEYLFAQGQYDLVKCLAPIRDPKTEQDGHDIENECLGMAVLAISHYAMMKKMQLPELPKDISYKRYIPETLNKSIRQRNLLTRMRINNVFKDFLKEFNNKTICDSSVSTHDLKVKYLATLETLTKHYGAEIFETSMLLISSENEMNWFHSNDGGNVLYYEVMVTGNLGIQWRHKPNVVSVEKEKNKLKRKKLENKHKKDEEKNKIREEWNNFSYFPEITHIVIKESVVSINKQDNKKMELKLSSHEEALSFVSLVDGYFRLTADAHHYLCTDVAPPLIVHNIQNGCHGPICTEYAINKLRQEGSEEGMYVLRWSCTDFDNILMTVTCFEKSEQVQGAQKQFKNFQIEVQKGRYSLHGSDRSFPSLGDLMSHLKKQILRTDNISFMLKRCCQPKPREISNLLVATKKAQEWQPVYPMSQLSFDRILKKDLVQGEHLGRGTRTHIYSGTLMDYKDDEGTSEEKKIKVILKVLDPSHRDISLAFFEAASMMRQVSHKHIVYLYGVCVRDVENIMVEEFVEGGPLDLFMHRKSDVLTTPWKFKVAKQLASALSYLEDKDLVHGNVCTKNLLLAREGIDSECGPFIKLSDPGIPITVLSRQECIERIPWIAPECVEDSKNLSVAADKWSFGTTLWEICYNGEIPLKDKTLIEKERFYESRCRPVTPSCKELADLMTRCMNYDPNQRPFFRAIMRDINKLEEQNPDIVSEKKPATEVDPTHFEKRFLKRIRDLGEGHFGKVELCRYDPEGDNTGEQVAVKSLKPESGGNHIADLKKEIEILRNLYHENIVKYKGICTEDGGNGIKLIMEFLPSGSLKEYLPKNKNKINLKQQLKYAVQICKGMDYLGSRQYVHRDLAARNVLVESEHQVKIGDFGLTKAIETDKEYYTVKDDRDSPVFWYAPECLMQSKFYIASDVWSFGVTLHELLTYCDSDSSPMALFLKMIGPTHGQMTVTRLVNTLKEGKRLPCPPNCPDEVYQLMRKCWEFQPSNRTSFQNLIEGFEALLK

By IC50 is commonly meant the point on the concentration scale where inhibition reaches its midpoint. As for `CSc1nnc(-c2cc3c(N[C@H](C)C4CC4)c(C(N)=O)cnn3c2)o1` [Example 127, (R)-4-(1-cyclopropylethylamino)-6-(5-(methylthio)-1,3,4-oxadiazol-2-yl)pyrrolo[1,2-b]pyridazine-3-carboxamide], the concentration for half-maximal inhibition (IC50) at GST-JAK1 enzyme was found to be 160 nM; at JAK3 enzyme it was 26 nM; at GST-JAK3 enzyme, 23.4 nM.

For the molecule `C[C@@H](Nc1c(C(N)=O)cnn2cc(N3CCOCC3=O)cc12)C(C)(C)F` [Example 129], the results for the half-inhibitory concentration (IC50) on GST-JAK1 enzyme, on JAK3 enzyme and at GST-JAK3 enzyme were 61.1 nM, 11 nM and 8.4 nM, respectively.

For `C[C@@H](Nc1c(C(N)=O)cnn2cc(N3CCCS3(=O)=O)cc12)C(C)(C)F` [Example 131], the half-inhibitory concentration (IC50) on GST-JAK1 enzyme was found to be 83.1 nM; at JAK3 enzyme it was 11.3 nM; on GST-JAK3 enzyme, 4.8 nM.

In the case of `CC(C)Nc1c(C(N)=O)cnn2cc(-c3ccc(C#N)cc3)cc12` [Example 146], the half-inhibitory concentration (IC50) stood at 26.5 nM on GST-JAK1 enzyme, 15.1 nM on JAK3 enzyme and 11.1 nM at GST-JAK3 enzyme.

Consider `CC(C)Nc1c(C(N)=O)cnn2cc(-c3ccnc4ccccc34)cc12` [Example 153], for which the 50% inhibitory concentration (IC50) is 402 nM on GST-JAK1 enzyme, 178 nM on JAK3 enzyme and 223 nM at GST-JAK3 enzyme.

For `COc1cc(-c2cc3c(NC(C)C)c(C(N)=O)cnn3c2)c(F)cn1` [Example 154], the results for the 50% inhibitory concentration (IC50) on GST-JAK1 enzyme, at JAK3 enzyme and on GST-JAK3 enzyme were 149 nM, 35.1 nM and 56.3 nM, respectively.

As for `COc1ccc(-c2cc3c(N[C@H](C)c4ccccc4F)c(C(N)=O)cnn3c2)cn1` [Example 180, 4-(((1R)-1-(2-fluorophenyl)ethyl)amino)-6-(6-methoxy-3-pyridinyl)pyrrolo[1,2-b]pyridazine-3-carboxamide], the IC50 at GST-JAK1 enzyme turned out to be 1200 nM; on JAK3 enzyme, 13.5 nM; at GST-JAK3 enzyme, 60.9 nM.

For `CCCNc1c(C(N)=O)cnn2cc(-c3ccccc3)cc12` [Example 183, 6-phenyl-4-(propylamino)pyrrolo[1,2-b]pyridazine-3-carboxamide], the IC50 is 37.3 nM at GST-JAK1 enzyme, 11 nM at JAK3 enzyme and 27.3 nM at GST-JAK3 enzyme.

For the molecule `NC(=O)c1cnn2cc(-c3ccccc3)cc2c1NCC1(CO)CC1` [Example 189, 4-((1-(hydroxymethyl)cyclopropyl)methylamino)-6-phenylpyrrolo[1,2-b]pyridazine-3-carboxamide], the IC50 is 21.5 nM at GST-JAK1 enzyme, 19.1 nM at JAK3 enzyme and 8.5 nM on GST-JAK3 enzyme.

Take `CNc1c(C(N)=O)cnn2cc(-c3cccc(CC#N)c3)cc12` [Example 191, 6-(3-(cyanomethyl)phenyl)-4-(methylamino)pyrrolo[1,2-b]pyridazine-3-carboxamide]: the IC50 at GST-JAK1 enzyme was 72.3 nM; on JAK3 enzyme, 88 nM; at GST-JAK3 enzyme, 40.6 nM.

Consider `C[C@@H](Nc1c(C(N)=O)cnn2cc(-c3cnc(N)nc3)cc12)C1CC1` [Example 192, (R)-6-(2-aminopyrimidin-5-yl)-4-(1-cyclopropylethylamino)pyrrolo[1,2-b]pyridazine-3-carboxamide], for which the IC50 at GST-JAK1 enzyme worked out at 13 nM; at JAK3 enzyme, 1.7 nM; on GST-JAK3 enzyme, 2.1 nM.

`C[C@@H](Nc1c(C(N)=O)cnn2cc(-c3ccccc3)cc12)C(C)(C)C(N)=O` [Example 194, (R)-4-(4-amino-3,3-dimethyl-4-oxobutan-2-ylamino)-6-phenylpyrrolo[1,2-b]-pyridazine-3-carboxamide]: the figures for the half-inhibitory concentration (IC50) at GST-JAK1 enzyme, at JAK3 enzyme and on GST-JAK3 enzyme were 2.8 nM, 1.3 nM and 1 nM, respectively.

For the molecule `CNc1nnc(-c2cc3c(N[C@H](C)C4CC4)c(C(N)=O)cnn3c2)o1` [Example 195, (R)-4-(1-cyclopropylethylamino)-6-(5-(methylamino)-1,3,4-oxadiazol-2-yl)pyrrolo[1,2-b]pyridazine-3-carboxamide], the values for the half-maximal inhibitory concentration (IC50) on GST-JAK1 enzyme, at JAK3 enzyme and at GST-JAK3 enzyme were 73.7 nM, 5.3 nM and 8.4 nM, respectively.

With `C[C@@H](O)[C@@H](CO)Nc1c(C(N)=O)cnn2cc(-c3ccccc3)cc12` [Example 196, 4-((2R,3R)-1,3-dihydroxybutan-2-ylamino)-6-phenylpyrrolo[1,2-b]pyridazine-3-carboxamide], the 50% inhibitory concentration (IC50) amounted to 5.8 nM on GST-JAK1 enzyme, 1.3 nM on JAK3 enzyme and 3 nM at GST-JAK3 enzyme.

For the molecule `C[C@@H](Nc1c(C(N)=O)cnn2cc(-c3ccc(N)nc3)cc12)C1CC1` [Example 200], the results for the 50% inhibitory concentration (IC50) at GST-JAK1 enzyme, on JAK3 enzyme and on GST-JAK3 enzyme were 4.8 nM, 1.1 nM and 2.2 nM, respectively.

`CNC(=O)c1ccc(-c2cc3c(N[C@H](C)C4CC4)c(C(N)=O)cnn3c2)cn1` [Example 202]: the IC50 on GST-JAK1 enzyme was determined as 3.8 nM; on JAK3 enzyme, 1.8 nM; at GST-JAK3 enzyme, 1.2 nM.

In the case of `C[C@@H](Nc1c(C(N)=O)cnn2cc(-c3cnc(NCCN(C)C)nc3)cc12)C1CC1` [Example 205], the 50% inhibitory concentration (IC50) at GST-JAK1 enzyme turned out to be 110 nM; on JAK3 enzyme, 7.9 nM; on GST-JAK3 enzyme it was 5.4 nM.

In the case of `C[C@@H](Nc1c(C(N)=O)cnn2cc(-c3nnc(N4CCN(C)CC4)o3)cc12)C1(C)CC1` [Example 241, (R)-4-((1-(1-methylcyclopropyl)ethyl)amino)-6-(5-(4-methylpiperazin-1-yl)-1,3,4-oxadiazol-2-yl)pyrrolo[1,2-b]pyridazine-3-carboxamide], the IC50 at GST-JAK1 enzyme was found to be 100 nM; on JAK3 enzyme, 2.3 nM; at GST-JAK3 enzyme, 1.8 nM.

Source of the values: US9221826B2, “Pyrrolopyridazine JAK3 inhibitors and their use for the treatment of inflammatory and autoimmune diseases” (Bristol-Myers Squibb Company, priority 2011, dated 2015).
